system: Bmi-1 protein; assay: Sandwich ELISA Assay (Bmi-1 protein level in HT-1080 cells after compound treatment); type: cell-based; settings: Table 1, Bmi-1 sandwich ELISA, read-out: ELISA EC50 value for Bmi-1 protein
Summary of the method: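 HT-1080 cells exposed to compounds for 40–48 h at 37 °C (0.5% DMSO final), then lysed. Bmi-1 in lysates measured by sandwich ELISA (mouse monoclonal capture, rabbit anti-Bmi-1 detection, HRP anti-rabbit, TMB), read at OD450 with OD570 reference against a recombinant Bmi-1 standard curve (0–8000 pg/mL).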

SMILES	EC50 [nM]
Cc1nc(Br)cn1-c1cncc(Nc2ccc(C(F)(F)F)cc2)n1 [compound 298, 6-(4-bromo-2-methyl-1H-imidazol-1-yl)-N-[4-(trifluoromethyl)phenyl]pyrazin-2-amine]	100 to 3000
Cc1nc(C)n(-c2cncc(Nc3ccc(C(F)(F)F)cc3)n2)c1Cl [compound 299, 6-(5-chloro-2,4-dimethyl-1H-imidazol-1-yl)-N-[4-(trifluoromethyl)phenyl]pyrazin-2-amine]	100 to 3000
Cc1cn(-c2cncc(Nc3ccc(C(F)(F)F)cc3)n2)c(C)n1 [compound 300]	10 to 100
Cc1nc2cc(F)c(F)cc2n1-c1cncc(Nc2ccc(OC(F)(F)F)c(F)c2)n1 [compound 301, 6-(5,6-difluoro-2-methyl-1H-benzimidazol-1-yl)-N-[3-fluoro-4-(trifluoromethoxy)phenyl]pyrazin-2-amine]	100 to 3000
CNCc1nc2ccccn2c1-c1cncc(Nc2ccc(C(F)(F)F)cc2)n1 [compound 302, 6-{2-[(methylamino)methyl]imidazo[1,2-a]pyridin-3-yl}-N-[4-(trifluoromethyl)phenyl]pyrazin-2-amine]	100 to 3000
Cc1nc(C(F)(F)F)cn1-c1cncc(Nc2ccc(C(F)(F)F)cc2)n1 [compound 303, 6-[2-methyl-4-(trifluoromethyl)-1H-imidazol-1-yl]-N-[4-(trifluoromethyl)phenyl]pyrazin-2-amine]	100 to 3000
Cc1nc2cc(F)c(F)cc2n1-c1cncc(Nc2ccc(C(F)(F)F)nc2)n1 [compound 304, 6-(5,6-difluoro-2-methyl-1H-benzimidazol-1-yl)-N-[6-(trifluoromethyl)pyridin-3-yl]pyrazin-2-amine]	10 to 100
Cc1nc(C)n(-c2cncc(Nc3ccc(OC(F)F)cc3)n2)c1Cl [compound 305, 6-(5-chloro-2,4-dimethyl-1H-imidazol-1-yl)-N-[4-(difluoromethoxy)phenyl]pyrazin-2-amine]	100 to 3000
Cc1nc2ccccc2n1-c1cncc(Nc2ccc(OCC(F)(F)F)cc2)n1 [compound 306, 6-(2-methyl-1H-benzimidazol-1-yl)-N-[4-(2,2,2-trifluoroethoxy)phenyl]pyrazin-2-amine]	100 to 3000
Cc1nc2ccccc2n1-c1cncc(Nc2ccc(OC(F)(F)C(F)F)cc2)n1 [compound 307, 6-(2-methyl-1H-benzimidazol-1-yl)-N-[4-(1,1,2,2-tetrafluoroethoxy)phenyl]pyrazin-2-amine]	100 to 3000
Fc1ccc2ncc(-c3cncc(Nc4ccc(C(F)(F)F)cc4)n3)n2c1 [compound 308, 6-(6-fluoroimidazo[1,2-a]pyridin-3-yl)-N-[4-(trifluoromethyl)phenyl]pyrazin-2-amine]	100 to 3000
Cc1nc2ccc(F)cn2c1-c1cncc(Nc2ccc(OC(F)F)c(F)c2)n1 [compound 309, N-[4-(difluoromethoxy)-3-fluorophenyl]-6-(6-fluoro-2-methylimidazo[1,2-a]pyridin-3-yl)pyrazin-2-amine]	1 to 10
COc1c(F)cc(Nc2cc(C#N)cc(-c3c(C)nc4ccc(F)cn34)n2)cc1F [compound 313, 2-[(3,5-difluoro-4-methoxyphenyl)amino]-6-(6-fluoro-2-methylimidazo[1,2-a]pyridin-3-yl)pyridine-4-carbonitrile]	1 to 10
COc1cc(Nc2cc(C#N)cc(-c3c(C)nc4ccc(F)cn34)n2)ccc1F [compound 314, 2-[(4-fluoro-3-methoxyphenyl)amino]-6-(6-fluoro-2-methylimidazo[1,2-a]pyridin-3-yl)pyridine-4-carbonitrile]	100 to 3000
COc1ccc2nc(C)n(-c3cncc(Nc4ccc(C(F)(F)F)cc4)n3)c2c1 [compound 317, 6-(6-methoxy-2-methyl-1H-benzimidazol-1-yl)-N-[4-(trifluoromethyl)phenyl]pyrazin-2-amine]	10 to 100
Cc1nc(C(F)(F)F)c(C)n1-c1cncc(Nc2ccc(C(F)(F)F)cc2)n1 [compound 318, 6-[2,5-dimethyl-4-(trifluoromethyl)-1H-imidazol-1-yl]-N-[4-(trifluoromethyl)phenyl]pyrazin-2-amine]	100 to 3000
Cc1nc2cc(F)c(F)cc2n1-c1cncc(Nc2ccc(OC(F)F)c(F)c2)n1 [compound 319, N-[4-(difluoromethoxy)-3-fluorophenyl]-6-(5,6-difluoro-2-methyl-1H-benzimidazol-1-yl)pyrazin-2-amine]	10 to 100
FC(F)(F)COc1ccc(Nc2cncc(-c3c(C(F)(F)F)nc4ccccn34)n2)cc1 [compound 321, N-[4-(2,2,2-trifluoroethoxy)phenyl]-6-[2-(trifluoromethyl)imidazo[1,2-a]pyridin-3-yl]pyrazin-2-amine]	10 to 100
FC(F)C(F)(F)Oc1ccc(Nc2cncc(-c3c(C(F)(F)F)nc4ccccn34)n2)cc1 [compound 322, N-[4-(1,1,2,2-tetrafluoroethoxy)phenyl]-6-[2-(trifluoromethyl)imidazo[1,2-a]pyridin-3-yl]pyrazin-2-amine]	100 to 3000

SMILES	EC50 [nM]
Fc1cc(Nc2cncc(-c3c(C(F)(F)F)nc4ccccn34)n2)ccc1OC(F)F [compound 323, N-[4-(difluoromethoxy)-3-fluorophenyl]-6-[2(trifluoromethyl)imidazo[1,2-a]pyridin-3-yl]pyrazin-2-amine]	1 to 10
Cc1nc2ccccc2n1-c1cncc(Nc2ccc(OC(F)F)c(F)c2)n1 [compound 324, N-[4-(difluoromethoxy)-3-fluorophenyl]-6-(2-methyl-1H-benzimidazol-1-yl)pyrazin-2-amine]	10 to 100
Cc1nc2ncccc2n1-c1cncc(Nc2ccc(OC(F)F)c(F)c2)n1 [compound 325]	10 to 100
Cc1nc2cc(F)c(F)cc2n1-c1cc(C#N)cc(Nc2ccc(OC(F)F)c(F)c2)n1 [compound 326, 2-{[4-(difluoromethoxy)-3-fluorophenyl]amino}-6-(5,6-difluoro-2-methyl-1H-benzimidazol-1-yl)pyridine-4-carbonitrile]	10 to 100
CCc1nc2ncc(Cl)cc2n1-c1cncc(Nc2ccc(C(F)(F)F)cc2)n1 [compound 327, 6-(6-chloro-2-ethyl-1H-imidazo[4,5-b]pyridin-1-yl)-N-[4-(trifluoromethyl)phenyl]pyrazin-2-amine]	1 to 10
OCc1nc2ccc(F)cn2c1-c1cncc(Nc2ccc(C(F)(F)F)cc2)n1 [compound 328, [6-fluoro-3-(6-{[4-(trifluoromethyl)phenyl]amino}pyrazin-2-yl)imidazo[1,2-a]pyridin-2-yl]methanol]	1 to 10
CCn1nc(C(F)(F)F)c(-c2cncc(Nc3ccc(OC(F)F)cc3)n2)c1C [compound 330, N-[4-(difluoromethoxy)phenyl]-6-[1-ethyl-5-methyl-3-(trifluoromethyl)-1H-pyrazol-4-yl]pyrazin-2-amine]	10 to 100
CCc1nn(C)c(CC)c1-c1cncc(Nc2ccc(OC(F)F)cc2)n1 [compound 333, 6-(3,5-diethyl-1-methyl-1H-pyrazol-4-yl)-N-[4-(difluoromethoxy)phenyl]pyrazin-2-amine]	1 to 10
Cc1nc2c(F)cccc2n1-c1cncc(Nc2ccc(C(F)(F)F)cc2)n1 [compound 339, 6-(4-fluoro-2-methyl-1H-benzimidazol-1-yl)-N-[4-(trifluoromethyl)phenyl]pyrazin-2-amine]	10 to 100
Cc1nc2ccc(C(F)(F)F)cc2n1-c1cncc(Nc2ccc(C(F)(F)F)cc2)n1 [compound 340, 6-[2-methyl-6-(trifluoromethyl)-1H-benzimidazol-1-yl]-N-[4-(trifluoromethyl)phenyl]pyrazin-2-amine]	100 to 3000
Cc1nc(Br)c(C)n1-c1cncc(Nc2ccc(C(F)(F)F)cc2)n1 [compound 341, 6-(4-bromo-2,5-dimethyl-1H-imidazol-1-yl)-N-[4-(trifluoromethyl)phenyl]pyrazin-2-amine]	100 to 3000
Cc1nc(C)n(-c2cncc(Nc3ccc(C(F)(F)F)cc3)n2)c1C [compound 342, N-[4-(trifluoromethyl)phenyl]-6-(2,4,5-trimethyl-1H-imidazol-1-yl)pyrazin-2-amine]	10 to 100
Cc1ccc2nc(C)n(-c3cncc(Nc4ccc(C(F)(F)F)cc4)n3)c2c1 [compound 343, 6-(2,6-dimethyl-1H-benzimidazol-1-yl)-N-[4-(trifluoromethyl)phenyl]pyrazin-2-amine]	1 to 10
Cc1nc2cc(Cl)ccc2n1-c1cc(C#N)cc(Nc2ccc(C(F)(F)F)cc2)n1 [compound 344, 2-(5-chloro-2-methyl-1H-benzimidazol-1-yl)-6-{[4-(trifluoromethyl)phenyl]amino}pyridine-4-carbonitrile]	100 to 3000
Cc1nc2ccc(Cl)cc2n1-c1cc(C#N)cc(Nc2ccc(C(F)(F)F)cc2)n1 [compound 345, 2-(6-chloro-2-methyl-1H-benzimidazol-1-yl)-6-{[4-(trifluoromethyl)phenyl]amino}pyridine-4-carbonitrile]	10 to 100
N#Cc1cc(Nc2ccc(OC(F)F)cc2)nc(-c2c(C3CC3)nc3ccc(F)cn23)c1 [compound 348, 2-(2-cyclopropyl-6-fluoroimidazo[1,2-a]pyridin-3-yl)-6-{[4-(difluoromethoxy)phenyl]amino}pyridine-4-carbonitrile]	1 to 10
COc1c(F)cc(Nc2cc(C#N)cc(-c3c(C4CC4)nc4ccc(F)cn34)n2)cc1F [compound 351, 2-(2-cyclopropyl-6-fluoroimidazo[1,2-a]pyridin-3-yl)-6-[(3,5-difluoro-4-methoxyphenyl)amino}pyridine-4-carbonitrile]	10 to 100
Cc1cc(-c2cncc(Nc3ccc(C(F)(F)F)cc3)n2)ccn1 [compound 353, 6-(2-methylpyridin-4-yl)-N-[4-(trifluoromethyl)phenyl]pyrazin-2-amine]	100 to 3000
FC(F)(F)c1ccc(Nc2cncc(-c3ccnc(-c4ccnc(Cl)c4)c3)n2)cc1 [compound 354, 6-(2′-chloro-2,4′-bipyridin-4-yl)-N-[4-(trifluoromethyl)phenyl]pyrazin-2-amine]	100 to 3000

— patent publication US10584115B2, “Substituted pyridine and pyrazine BMI-1 inhibitors” (PTC Therapeutics, Inc., priority 2013, dated 2020)
